# Source: patent US7291217B2, “Non-toxic corrosion-protection pigments based on rare earth elements” (University of Dayton, priority 2002, dated 2007)
# Several values for one entry are separate records, joined by “and”; a condition that tells them apart may be missing. Identical values can stand only once.
# Columns and labels:
# [1] = in acid solution (pH 0); reduction to the trivalent ion; cited from earlier work
# [2] = Static salt fog accelerated corrosion test (ASTM B-117) of PVB wash primer containing the pigment, rated by ASTM D-1654; conditions: ASTM D-1654 rating; for B-117 Proc. A: failure at scribe; for B-117 Proc. B: unscribed areas
# Protocol: (§1) The corrosion-inhibiting performance of CeIV pigments was evaluated by incorporating them into primer paint formulations. […] The wash primer is composed of a resin, an acid, a corrosion-inhibiting pigment, powdered talc, and carbon lampblack. The acid content of this wash primer provides a rigorous initial test of the stability and performance of the pigments. Other, more benign, polymer-based binder and resin systems might not separate the compounds based on their performance as effectively or as rapidly.
# (§2) PVB was used exclusively throughout testing to avoid preparation and compositional complications during analysis of pigment performance. However, the invention is not limited to the use of PVB.
# (§3) A small amount (0.2 g) of powdered talc (magnesium silicate) “filler” was added. Lampblack was not added to these samples. These components were mixed thoroughly by hand and 3.8 grams of phosphoric acid diluent added with further mixing. This rough processing allowed direct comparisons of pigment performance to be made without complications due to powder treatments, modifications, and additives.
# (§4) This is not the conventional paint application procedure for aluminum alloys. Under normal service conditions, aluminum alloys are first subjected to a hexavalent chromium-containing conversion coating prior to primer application. However, the conversion coating was omitted so that the performance of the pigment alone could be evaluated and not the synergistic effects of hexavalent chromium (in the conversion coating) or even of barrier films (in the phosphate or anodized coatings).
# (§5) This accelerated corrosion test exposes samples to a constant salt-water fog and is a de facto test of solubility for corrosion inhibitors. […] This accelerated corrosion test exposes samples to a cycle of fog of dilute salt and ammonium sulfate at room temperature followed by forced-air drying at an elevated temperature.
# (§6) After the paint dried for 24 hours, each plate was scribed with an X and the plate edges were sealed with PVC tape to eliminate corrosion edge effects.
# (§7) Two visual observations are associated with this rating test. Procedure A involves a rating of the failure at the scribe—the representative creepage of corrosion away from the scribe. […] In this way, not only the bulk corrosion-inhibiting action of a pigment through the binder can be rated, but also its “throwing power”.
# [3] = Cyclic Prohesion accelerated corrosion test (ASTM G-85.5) of PVB wash primer containing the pigment, rated by ASTM D-1654; conditions: ASTM D-1654 rating; for G-85 Proc. A: failure at scribe; for G-85 Proc. B: unscribed areas
# Protocol: as §1, §2, §3, §4, §5, §6, §7
# [4] = 2024-T3, 117 h, inhibitor conc. 1.86 × 10^−3 M (25% of Cr), two cells per column
# [5] = 7075-T6, 117 h, inhibitor conc. 1.86 × 10^−3 M (25% of Cr), two cells per column
# [6] = 2024-T3, 139 h, inhibitor conc. 3.72 × 10^−3 M (50% of Cr), sample and duplicate
# [7] = 7075-T6, 139 h, inhibitor conc. 3.72 × 10^−3 M (50% of Cr), sample and duplicate
# [8] = 2024-T3, 117 h, inhibitor conc. 7.44 × 10^−4 M (10% of Cr), sample and duplicate
# [9] = 7075-T6, 117 h, inhibitor conc. 7.44 × 10^−4 M (10% of Cr), sample and duplicate
# [10] = 2024-T3, 139 h, inhibitor conc. 7.44 × 10^−4 M (10% of Cr), sample and duplicate
# [11] = 7075-T6, 139 h, inhibitor conc. 7.44 × 10^−4 M (10% of Cr), sample and duplicate
# [12] = 2024-T3, 144 h, inhibitor conc. 5.2 × 10^−4 M (7% of Cr), sample and duplicate
# [13] = 7075-T6, 144 h, inhibitor conc. 5.2 × 10^−4 M (7% of Cr), sample and duplicate
# [14] = 2024-T3, 144 h, inhibitor conc. 3.72 × 10^−3 M (50% of Cr), sample and duplicate
# [15] = 7075-T6, 144 h, inhibitor conc. 3.72 × 10^−3 M (50% of Cr), sample and duplicate
molecule,measurement,setting,value
[Ce+4] [Ce^+4],oxidation-reduction potential,[1],1.72 V
CCCCCCCC[N+](C)(CCCCCCCC)CCCCCCCC.CCCCCCCC[N+](C)(CCCCCCCC)CCCCCCCC.O=[N+]([O-])[O-].O=[N+]([O-])[O-].O=[N+]([O-])[O-].O=[N+]([O-])[O-].O=[N+]([O-])[O-].O=[N+]([O-])[O-].[Ce+4] [Nitrate/Adogen 464],B-117 Proc. A,[2]; [4],5
same,B-117 Proc. A,[2]; [5],5
same,B-117 Proc. B,[2]; [4],5
same,B-117 Proc. B,[2]; [5],3 and 5
same,G-85 Proc. A,[3]; [4],7
same,G-85 Proc. A,[3]; [5],7
same,G-85 Proc. B,[3]; [4],6
same,G-85 Proc. B,[3]; [5],6
CCCC[N+](CCCC)(CCCC)CCCC.CCCC[N+](CCCC)(CCCC)CCCC.O=[N+]([O-])[O-].O=[N+]([O-])[O-].O=[N+]([O-])[O-].O=[N+]([O-])[O-].O=[N+]([O-])[O-].O=[N+]([O-])[O-].[Ce+4] [Nitrate/NBu4^+],B-117 Proc. A,[2]; [4],7
same,B-117 Proc. A,[2]; [5],7 and 6
same,B-117 Proc. B,[2]; [4],5 and 6
same,B-117 Proc. B,[2]; [5],6
same,G-85 Proc. A,[3]; [4],9
same,G-85 Proc. A,[3]; [5],9
same,G-85 Proc. B,[3]; [4],8
same,G-85 Proc. B,[3]; [5],8
CC[N+](CC)(CC)CC.CC[N+](CC)(CC)CC.O=[N+]([O-])[O-].O=[N+]([O-])[O-].O=[N+]([O-])[O-].O=[N+]([O-])[O-].O=[N+]([O-])[O-].O=[N+]([O-])[O-].[Ce+4] [Nitrate/NEt4^+],B-117 Proc. A,[2]; [4],6
same,B-117 Proc. A,[2]; [5],6 and 5
same,B-117 Proc. B,[2]; [4],3
same,B-117 Proc. B,[2]; [5],4
same,G-85 Proc. A,[3]; [4],9 and 10
same,G-85 Proc. A,[3]; [5],10
same,G-85 Proc. B,[3]; [4],7 and 8
same,G-85 Proc. B,[3]; [5],8
C[N+](C)(C)C.C[N+](C)(C)C.O=[N+]([O-])[O-].O=[N+]([O-])[O-].O=[N+]([O-])[O-].O=[N+]([O-])[O-].O=[N+]([O-])[O-].O=[N+]([O-])[O-].[Ce+4] [Nitrate/NMe4^+],G-85 Proc. A,[3]; [4],8 and 7
same,G-85 Proc. A,[3]; [5],8 and 7
same,G-85 Proc. B,[3]; [4],7 and 6
same,G-85 Proc. B,[3]; [5],7 and 6
CCCCC[N+](CCCCC)(CCCCC)CCCCC.CCCCC[N+](CCCCC)(CCCCC)CCCCC.O=[N+]([O-])[O-].O=[N+]([O-])[O-].O=[N+]([O-])[O-].O=[N+]([O-])[O-].O=[N+]([O-])[O-].O=[N+]([O-])[O-].[Ce+4] [Nitrate/NPe4^+],B-117 Proc. A,[2]; [4],6
same,B-117 Proc. A,[2]; [5],6
same,B-117 Proc. B,[2]; [4],5
same,B-117 Proc. B,[2]; [5],6
same,G-85 Proc. A,[3]; [4],9
same,G-85 Proc. A,[3]; [5],9
same,G-85 Proc. B,[3]; [4],8
same,G-85 Proc. B,[3]; [5],7
CCC[N+](CCC)(CCC)CCC.CCC[N+](CCC)(CCC)CCC.O=[N+]([O-])[O-].O=[N+]([O-])[O-].O=[N+]([O-])[O-].O=[N+]([O-])[O-].O=[N+]([O-])[O-].O=[N+]([O-])[O-].[Ce+4] [Nitrate/NPr4^+],B-117 Proc. A,[2]; [4],7
same,B-117 Proc. A,[2]; [5],7
same,B-117 Proc. B,[2]; [4],7 and 6
same,B-117 Proc. B,[2]; [5],6
same,G-85 Proc. A,[3]; [4],9 and 10
same,G-85 Proc. A,[3]; [5],9 and 8
same,G-85 Proc. B,[3]; [4],8 and 9
same,G-85 Proc. B,[3]; [5],7
ammonium 18-vanadatocerate,B-117 Proc. A,[2]; [6],7
same,B-117 Proc. A,[2]; [7],7
same,B-117 Proc. B,[2]; [6],6
same,B-117 Proc. B,[2]; [7],6
same,G-85 Proc. A,[3]; [6],7 and 8
same,G-85 Proc. A,[3]; [7],8
same,G-85 Proc. B,[3]; [6],6 and 7
same,G-85 Proc. B,[3]; [7],6 and 7
calcium 10-tungstocerate,B-117 Proc. A,[2]; [8],3
same,B-117 Proc. A,[2]; [9],2
same,G-85 Proc. A,[3]; [8],7
same,G-85 Proc. A,[3]; [9],7
same,G-85 Proc. B,[3]; [8],6
same,G-85 Proc. B,[3]; [9],6
calcium 11-phosphotungstocerate,B-117 Proc. A,[2]; [10],6 and 5
same,B-117 Proc. A,[2]; [11],4
same,B-117 Proc. B,[2]; [10],4
same,B-117 Proc. B,[2]; [11],3
same,G-85 Proc. A,[3]; [10],8 and 7
same,G-85 Proc. A,[3]; [11],6
same,G-85 Proc. B,[3]; [10],8 and 7
same,G-85 Proc. B,[3]; [11],5 and 6
calcium 12-molybdocerate,B-117 Proc. A,[2]; [12],6 and 7
same,B-117 Proc. A,[2]; [13],7
same,B-117 Proc. B,[2]; [12],4 and 5
same,B-117 Proc. B,[2]; [13],6
same,G-85 Proc. A,[3]; [12],8 and 7
same,G-85 Proc. A,[3]; [13],8 and 7
same,G-85 Proc. B,[3]; [12],6
same,G-85 Proc. B,[3]; [13],7 and 5
lithium periodatocerate,B-117 Proc. A,[2]; [14],6 and 5
same,B-117 Proc. A,[2]; [15],4
same,B-117 Proc. B,[2]; [14],6 and 5
same,B-117 Proc. B,[2]; [15],2 and 3
same,G-85 Proc. A,[3]; [14],7
same,G-85 Proc. A,[3]; [15],7
same,G-85 Proc. B,[3]; [14],7
same,G-85 Proc. B,[3]; [15],7
magnesium 10-tungstocerate,B-117 Proc. A,[2]; [8],5
same,B-117 Proc. A,[2]; [9],5 and 4
same,B-117 Proc. B,[2]; [8],2
same,B-117 Proc. B,[2]; [9],2
same,G-85 Proc. A,[3]; [8],9
same,G-85 Proc. A,[3]; [9],8
same,G-85 Proc. B,[3]; [8],8
same,G-85 Proc. B,[3]; [9],7
magnesium 11-phosphotungstocerate,B-117 Proc. A,[2]; [10],6
same,B-117 Proc. A,[2]; [11],5
same,B-117 Proc. B,[2]; [10],5
same,B-117 Proc. B,[2]; [11],5
same,G-85 Proc. A,[3]; [10],7
same,G-85 Proc. A,[3]; [11],7
same,G-85 Proc. B,[3]; [10],6
same,G-85 Proc. B,[3]; [11],6
